Measurements published in US4620014A, “2-furylbutyrolactones and methods for using same” (priority 1983, dated 1986).
Values joined by “and” are separate entries in the source; they are usually repeats but may differ in a detail not shown here. Equal entries are not always repeated. Where two headings read alike, the source gives them in different places.

Key:
L5178Y tumor = details: 100 mg/kg i.p., 7 days
Protocol: (§1) Ten days later the resultant tumor nodule, about 1 cm in size, is surgically excised. If the excision was successful, no subcutaneous tumors develop at the site of implantation. […] These mice are considered to be in the tumor dormant state.
(§2) The effect of Cpd. 1 on the emergence from the L5178Y tumor dormant state is studied by treating forty DBA/2 mice with Cpd. 1 after the mice have undergone the TDS inducing procedure. […] 1 at 100 mg/kg and the remaining twenty mice receive buffer only. A partial peritoneal lavage is performed twenty-five days after the last dose of Cpd. 1 and the peritoneal exudate fluid is plated out for determination of tumor cell numbers (tumor cell quantitative assay). Survival time is recorded out to 90 days after challenge with the viable L5178Y tumor cells. The percent mortality is calculated for each group.
(§3) The effect of Cpd. 1 on the emergence from the L5178Y tumor dormant state was studied by treating forty DBA/2 mice with Cpd. 1 after the mice had undergone the TDS inducing procedure. Two days after the mice were challenged with i.p. administration of 50,000 viable L5178Y tumor cells, twenty of these mice received seven consecutive days of i.p. treatment with Cpd. 1 at 100 mg/kg and the remaining twenty mice received buffer only. A partial peritoneal lavage was performed twenty-five days after the last dose of Cpd. 1 and the peritoneal exudate fluid was plated out for determination of tumor cell numbers (tumor cell quantitative assay). Survival time was recorded out to 114 days after challenge with the viable L5178Y tumor cells. The percent mortality was calculated for each group.

L5178Y tumor cells = details: 100 mg/kg i.p., 7 days
Protocol: as §1, §2, §3

CD-1 mice = details: 14 days
Protocol: (§4) Single oral dose LD50 in CD-1 mice and CD rats, obtained from Charles River U.K. Ltd., for Cpd. 1 is determined. […] Cpd. 1, dissolved in buffer, or just buffer is administered orally and the mice and rats are observed for 14 days after dosing. After 14 days, the animals are sacrified and necropsy is performed to check for gross evidence of toxicity.

CD rats = details: 14 days
Protocol: as §4

[1] = Dissolution in bicarbonate buffered saline; type: physicochemical; details: 0.238 molar bicarbonate buffered saline (0.85%)
[2] = tested on: spleen lymphocytes of BDF1 mice; details: 7 days
Protocol: The purpose of this assay is to challenge lymphocytes in microcultures with one or more polyclonal mitogens at concentrations that will induce mitogenesis within 72 hours of stimulation.
In the mouse model, spleens are removed from different strains of mice and the spleen cells are teased free and suspended in RPMI-1640 tissue culture medium at a concentration of usually 1×10^7 ml. These cells are dispensed at a concentration of 5.0×10^5 cells per microculture well in a 96 well flat bottom 96 well tissue culture plate. All testing of the compounds of this invention or mitogens are done in replicates of 10. The cells are then treated with PHA, Con-A, specific antigens, or buffer only. If in vitro testing is done, varying concentrations of the compounds of this invention or buffer only are added to the cells as well. After treatment with the mitogens and/or compounds of this invention, the cells are incubated for 72 hours. The response of these cells to mitogens and/or the compounds of this invention is assessed using ^14 C-thymidine labeling on the fourth day at a concentration of 0.01 μCi/well. The labeled cells are harvested using a lymphocyte harvestor and placed onto fibrous paper discs. A scintillation cocktail is added to vials contaning the discs and the results are obtained using a LKB-liquid scintillation counter (Model 1216/Rackbeta II). The data is expressed as a ratio of the cpm of the mitogen stimulated group to the control (non-mitogen) treated group=lymphocyte stimulation index (LSI).
The lymphocyte stimulation assay may be performed directly on spleen cells obtained from various strains of mice not treated with the compounds of this invention or on lymphocytes obtained from […]. […] Alternatively, the mice may be treated in vivo with the compounds of this invention by intraperitoneal multi-dose schedules, followed by sacrifice and harvesting spleen lymphocytes. These cells are then tested for their response to polyclonal mitogens or specific antigens used to immunize the mice. In this sytem however, no additional compound is added to the in vitro lymphocyte stimulation assay system.
Two strains of mice, C57BL/6 and BDF1 are treated for seven days with i.p. administration of either 25, 50, 100, 200, or 400 mg/kg of Cpd. 1 or just buffer. This is followed on the eighth day by a lymphocyte stimulation assay.

Cc1ccc(C2(O)C(=O)OC3C(O)COC32O)o1.Cc1ccc(C2(O)C(=O)OC3C(O)COC32O)o1.O=C1CCC(=O)O1 (stereo not drawn) [Cpd. 1]
survival versus untreated controls (L5178Y tumor): significantly greater survival
% Survival (L5178Y tumor; 90 days post-challenge): 55.6%
No. Survivors (L5178Y tumor; 90 days post-challenge): 10
% Survival (L5178Y tumor; 114 days post-challenge): 82.6%
No. Survivors (L5178Y tumor; 114 days post-challenge): 19
numbers of tumor cells recovered versus controls (L5178Y tumor cells): significant reduction in the numbers of tumor cells
Frequency of mice, Treated Group (L5178Y tumor cells; 1,000 to 100,000 tumor cells): 7 and 4
% of Total, Treated Group (L5178Y tumor cells; >100,000 tumor cells): 6% and 4.3%
Frequency of mice, Treated Group (L5178Y tumor cells; >100,000 tumor cells): 1
deaths or signs of toxicity (CD-1 mice; single oral 5 g/kg): No deaths or signs of toxicity
LD50 (CD-1 mice; single oral dose): > 5000 mg/kg
deaths or signs of toxicity (CD rats; single oral 5 g/kg): No deaths or signs of toxicity
LD50 (CD rats; single oral dose): > 5000 mg/kg
dissolution [1]: dissolves completely
Con-A response ([2]; 400 mg/kg i.p.): slight suppression of the Con-A response
PHA response ([2]; 400 mg/kg i.p.): strong suppression of the PHA response
T-lymphocyte proliferation, PHA ([2]; 50 and 100 mg/kg i.p.): stimulation of T-lymphocyte proliferation
Con-A response ([2]; between 50 and 100 mg/kg i.p.): significantly increased
